Patent US9212182B2, “Bicyclic sulfonamide compounds as sodium channel inhibitors” (AMGEN INC., priority 2013, dated 2015)

target: Nav 1.7 (Homo sapiens (Human), UniProt Q15858); assay: in-vitro Nav 1.7 PX (IC50); format: cell-based; conditions: not given
Sequence (Q15858 whole entry): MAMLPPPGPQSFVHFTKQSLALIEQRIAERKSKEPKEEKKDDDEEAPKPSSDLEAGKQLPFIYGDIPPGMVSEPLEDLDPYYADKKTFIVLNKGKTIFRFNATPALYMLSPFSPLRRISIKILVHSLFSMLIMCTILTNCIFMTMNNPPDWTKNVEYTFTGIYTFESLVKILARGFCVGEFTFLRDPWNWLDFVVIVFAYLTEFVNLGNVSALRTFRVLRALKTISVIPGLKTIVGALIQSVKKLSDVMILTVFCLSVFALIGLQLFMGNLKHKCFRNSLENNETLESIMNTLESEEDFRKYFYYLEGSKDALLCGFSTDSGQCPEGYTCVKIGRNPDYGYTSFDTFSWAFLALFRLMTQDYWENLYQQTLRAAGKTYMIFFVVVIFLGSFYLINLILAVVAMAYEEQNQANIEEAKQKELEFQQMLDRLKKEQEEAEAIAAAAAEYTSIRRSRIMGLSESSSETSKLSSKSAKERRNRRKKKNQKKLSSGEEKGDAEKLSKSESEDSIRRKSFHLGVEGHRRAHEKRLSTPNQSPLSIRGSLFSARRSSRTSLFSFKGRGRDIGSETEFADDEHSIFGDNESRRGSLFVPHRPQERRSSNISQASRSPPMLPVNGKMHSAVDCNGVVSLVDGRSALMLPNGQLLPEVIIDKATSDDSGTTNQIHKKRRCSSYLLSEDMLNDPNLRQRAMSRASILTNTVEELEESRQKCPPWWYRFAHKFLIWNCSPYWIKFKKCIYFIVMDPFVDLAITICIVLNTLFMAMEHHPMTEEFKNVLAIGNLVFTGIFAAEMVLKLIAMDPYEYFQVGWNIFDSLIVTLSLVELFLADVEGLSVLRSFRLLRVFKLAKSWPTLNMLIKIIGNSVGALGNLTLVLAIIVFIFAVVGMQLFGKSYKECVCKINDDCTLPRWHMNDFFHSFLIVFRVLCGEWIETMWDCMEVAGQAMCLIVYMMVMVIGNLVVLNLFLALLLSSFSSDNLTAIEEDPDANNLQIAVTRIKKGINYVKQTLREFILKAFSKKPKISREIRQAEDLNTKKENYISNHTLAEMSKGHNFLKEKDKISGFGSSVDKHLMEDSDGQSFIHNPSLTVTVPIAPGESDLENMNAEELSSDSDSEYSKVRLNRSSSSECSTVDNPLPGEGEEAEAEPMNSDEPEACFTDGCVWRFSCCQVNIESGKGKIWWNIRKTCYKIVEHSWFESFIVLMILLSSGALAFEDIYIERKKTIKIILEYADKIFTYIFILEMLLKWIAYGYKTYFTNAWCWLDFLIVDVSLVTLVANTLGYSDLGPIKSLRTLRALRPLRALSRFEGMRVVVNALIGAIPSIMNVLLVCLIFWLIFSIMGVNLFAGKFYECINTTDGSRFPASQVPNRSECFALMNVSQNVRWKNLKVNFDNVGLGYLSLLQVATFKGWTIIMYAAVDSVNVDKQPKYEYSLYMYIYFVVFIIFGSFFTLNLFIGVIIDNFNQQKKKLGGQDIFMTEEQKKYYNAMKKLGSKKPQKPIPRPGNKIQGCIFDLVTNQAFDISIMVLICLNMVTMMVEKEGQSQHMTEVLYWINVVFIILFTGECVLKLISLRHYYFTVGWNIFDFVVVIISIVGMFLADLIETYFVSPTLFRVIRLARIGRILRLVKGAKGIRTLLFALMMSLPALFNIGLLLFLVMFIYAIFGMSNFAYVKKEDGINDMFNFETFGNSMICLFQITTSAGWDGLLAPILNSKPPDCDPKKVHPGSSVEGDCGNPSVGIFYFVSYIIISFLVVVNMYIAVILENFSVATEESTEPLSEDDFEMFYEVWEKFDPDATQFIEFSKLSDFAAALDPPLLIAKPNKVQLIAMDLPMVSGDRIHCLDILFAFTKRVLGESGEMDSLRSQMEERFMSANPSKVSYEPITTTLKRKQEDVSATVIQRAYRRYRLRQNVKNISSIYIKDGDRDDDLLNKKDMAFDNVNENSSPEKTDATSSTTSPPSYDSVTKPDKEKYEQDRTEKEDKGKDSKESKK

| SMILES | IC50 |
| --- | --- |
| COc1cc(-c2cccc(OC(C)C)c2)ccc1-n1c(=O)ccc2cc(S(=O)(=O)Nc3cc(C)ncn3)ccc21 (atropisomer, axis not shown; (P)) [Example 1205, (P)-1-(3-methoxy-3′-(1-methylethoxy)-4-biphenylyl)-N-(6-methyl-4-pyrimidinyl)-2-oxo-1,2-dihydro-6-quinolinesulfonamide] | 290 nM |
| CO[C@H]1CCCC[C@@H]1n1c(=O)ccc2cc(S(=O)(=O)Nc3ncns3)ccc21 (racemic) [Example 1145, (±)-1-((1S,2S)-2-methoxycyclohexyl)-2-oxo-N-1,2,4-thiadiazol-5-yl-1,2-dihydro-6-quinolinesulfonamide] | 471 nM |
| N#CCOc1cc(-c2cccc(F)c2)c(F)cc1-n1c(=O)ccc2cc(S(=O)(=O)Nc3ccon3)ccc21 [Example 387, 1-(5-(cyanomethoxy)-2,3′-difluoro-[1,1′-biphenyl]-4-yl)-N-(isoxazol-3-yl)-2-oxo-1,2-dihydroquinoline-6-sulfonamide] | 89 nM |
| COc1cc(-c2cnc(OC)c(Cl)c2)c(F)cc1-n1c(=O)ccc2cc(S(=O)(=O)Nc3cccnn3)ccc21 (atropisomer, axis not shown; (P)) [Example 1157, (P)-1-(4-(5-chloro-6-methoxy-3-pyridinyl)-5-fluoro-2-methoxyphenyl)-2-oxo-N-3-pyridazinyl-1,2-dihydro-6-quinolinesulfonamide] | 63 nM |
| COc1cc(-c2ccc(F)c(F)c2)c(F)cc1-n1c(=O)cnc2cc(S(=O)(=O)Nc3cccnn3)ccc21 [Example 1180, 2-oxo-N-3-pyridazinyl-1-(2,3′,4′-trifluoro-5-methoxy-4-biphenylyl)-1,2-dihydro-6-quinoxalinesulfonamide] | 265 nM |

same assay, conditions: in-vitro Nav 1.7 PX data

| SMILES | IC50 |
| --- | --- |
| COc1cc(-c2ccc(Cl)cc2F)c(F)cc1-n1c(=O)ccc2cc(S(=O)(=O)Nc3ccon3)ccc21 [Example 733, 1-(4′-chloro-2,2′-difluoro-5-methoxy-4-biphenylyl)-N-3-isoxazolyl-2-oxo-1,2-dihydro-6-quinolinesulfonamide] | 20 nM |
| COc1cc(-c2ccc(Cl)c(C#N)c2)c(F)cc1-n1c(=O)ccc2cc(S(=O)(=O)Nc3cc(C)ncn3)ccc21 [Example 898, 1-(4′-chloro-3′-cyano-2-fluoro-5-methoxy-4-biphenylyl)-N-(6-methyl-4-pyrimidinyl)-2-oxo-1,2-dihydro-6-quinolinesulfonamide] | 44 nM |
| COc1cc(-c2ccc(F)c(F)c2)ccc1-n1c(=O)ccc2cc(S(=O)(=O)Nc3ccon3)ccc21 [Example 1014, 1-(3′,4′-difluoro-3-methoxy-4-biphenylyl)-N-3-isoxazolyl-2-oxo-1,2-dihydro-6-quinolinesulfonamide] | 53 nM |
| COc1cc(-c2cc(F)cc(C(F)(F)F)c2)c(F)cc1-n1c(=O)ccc2cc(S(=O)(=O)Nc3ccon3)ccc21 [Example 711, 1-(2,3′-difluoro-5-methoxy-5′-(trifluoromethyl)-4-biphenylyl)-N-3-isoxazolyl-2-oxo-1,2-dihydro-6-quinolinesulfonamide] | 9 nM |
| COc1cc(-c2ccc(Cl)cc2C(N)=O)c(F)cc1-n1c(=O)ccc2cc(S(=O)(=O)Nc3ccon3)ccc21 [Example 755, 4-chloro-2′-fluoro-4′-(6-(3-isoxazolylsulfamoyl)-2-oxo-1(2H)-quinolinyl)-5′-methoxy-2-biphenylcarboxamide] | 351 nM |
| COc1cc(-c2cccc(C)c2)ccc1-n1c(=O)ccc2cc(S(=O)(=O)Nc3ccnc(C)n3)ccc21 [Example 1132, 1-(3-methoxy-3′-methyl-4-biphenylyl)-N-(2-methyl-4-pyrimidinyl)-2-oxo-1,2-dihydro-6-quinolinesulfonamide] | 192 nM |
| COc1cc(-c2ccc(F)c(C)c2)c(F)cc1-n1c(=O)ccc2cc(S(=O)(=O)Nc3ncco3)ccc21 [Example 943, 1-(2,4′-difluoro-5-methoxy-3′-methyl-4-biphenylyl)-N-1,3-oxazol-2-yl-2-oxo-1,2-dihydro-6-quinolinesulfonamide] | 13 nM |
| COc1cc(-c2cnc(F)c(C)c2)c(F)cc1-n1c(=O)ccc2cc(S(=O)(=O)Nc3ccon3)ccc21 [Example 722, 1-(5-fluoro-4-(6-fluoro-5-methyl-3-pyridinyl)-2-methoxyphenyl)-N-3-isoxazolyl-2-oxo-1,2-dihydro-6-quinolinesulfonamide] | 178 nM |
| COc1cc(-c2ccc(Cl)c(C)c2)c(F)cc1-n1c(=O)ccc2cc(S(=O)(=O)Nc3cc(C)on3)ccc21 [Example 931, 1-(4′-chloro-2-fluoro-5-methoxy-3′-methyl-4-biphenylyl)-N-(5-methyl-3-isoxazolyl)-2-oxo-1,2-dihydro-6-quinolinesulfonamide] | 128 nM |
| COc1cc(-c2cccc(OC)c2C)ccc1-n1c(=O)ccc2cc(S(=O)(=O)Nc3ccon3)ccc21 [Example 787, 1-(3,3′-dimethoxy-2′-methyl-4-biphenylyl)-N-3-isoxazolyl-2-oxo-1,2-dihydro-6-quinolinesulfonamide] | 52 nM |
| COc1cc(-c2cccc(C)c2)c(F)cc1-n1c(=O)ccc2cc(S(=O)(=O)Nc3ncc(F)cn3)ccc21 [Example 1109, 1-(2-fluoro-5-methoxy-3′-methyl-4-biphenylyl)-N-(5-fluoro-2-pyrimidinyl)-2-oxo-1,2-dihydro-6-quinolinesulfonamide] | 20 nM |
| COc1cc(-c2ccc(C(F)(F)F)cc2)c(F)cc1-n1c(=O)ccc2cc(S(=O)(=O)Nc3ncccn3)ccc21 [Example 797, 1-(2-fluoro-5-methoxy-4′-(trifluoromethyl)-4-biphenylyl)-2-oxo-N-2-pyrimidinyl-1,2-dihydro-6-quinolinesulfonamide] | 43 nM |
| COc1ccc(-c2cc(OC)c(-n3c(=O)ccc4cc(S(=O)(=O)Nc5ccon5)ccc43)cc2F)c(Cl)c1 [Example 699, 1-(2′-chloro-2-fluoro-4′,5-dimethoxy-4-biphenylyl)-N-3-isoxazolyl-2-oxo-1,2-dihydro-6-quinolinesulfonamide] | 37 nM |
| COc1ccc(-c2ccccc2F)cc1-n1c(=O)ccc2cc(S(=O)(=O)Nc3ccon3)ccc21 [Example 836, 1-(2′-fluoro-4-methoxy-3-biphenylyl)-N-3-isoxazolyl-2-oxo-1,2-dihydro-6-quinolinesulfonamide] | 120 nM |
| COc1cc(-c2cccc(C(F)(F)F)c2)ccc1-n1c(=O)ccc2cc(S(=O)(=O)Nc3ncco3)ccc21 [Example 916, 1-(3-methoxy-3′-(trifluoromethyl)-4-biphenylyl)-N-1,3-oxazol-2-yl-2-oxo-1,2-dihydro-6-quinolinesulfonamide] | 50 nM |
| COc1cc(-c2cc(F)cc(C#N)c2)ccc1-n1c(=O)ccc2cc(S(=O)(=O)Nc3ccon3)ccc21 [Example 1021, 1-(3′-cyano-5′-fluoro-3-methoxy-4-biphenylyl)-N-3-isoxazolyl-2-oxo-1,2-dihydro-6-quinolinesulfonamide] | 105 nM |
| COc1cc(-c2ccc(C)c(F)c2)c(F)cc1-n1c(=O)ccc2cc(S(=O)(=O)Nc3cccnn3)ccc21 [Example 1128, 1-(2,3′-difluoro-5-methoxy-4′-methyl-4-biphenylyl)-2-oxo-N-3-pyridazinyl-1,2-dihydro-6-quinolinesulfonamide] | 36 nM |
| COc1cc(-c2cccc(C(F)(F)F)c2)ccc1-n1c(=O)ccc2cc(S(=O)(=O)Nc3ncc(F)cn3)ccc21 [Example 917, N-(5-fluoro-2-pyrimidinyl)-1-(3-methoxy-3′-(trifluoromethyl)-4-biphenylyl)-2-oxo-1,2-dihydro-6-quinolinesulfonamide] | 31 nM |
| COc1cc(-c2cccc(C(F)(F)F)n2)c(F)cc1-n1c(=O)ccc2cc(S(=O)(=O)Nc3ccon3)ccc21 [Example 794, 1-(5-fluoro-2-methoxy-4-(6-(trifluoromethyl)-2-pyridinyl)phenyl)-N-3-isoxazolyl-2-oxo-1,2-dihydro-6-quinolinesulfonamide] | 96 nM |
| COc1cc(-c2ccc(Cl)cc2)c(F)cc1-n1c(=O)ccc2cc(S(=O)(=O)Nc3ncc(F)cn3)ccc21 [Example 750, 1-(4′-chloro-2-fluoro-5-methoxy-4-biphenylyl)-N-(5-fluoro-2-pyrimidinyl)-2-oxo-1,2-dihydro-6-quinolinesulfonamide] | 10 nM |
| COc1ccc(-c2ccc(Cl)c(F)c2)cc1-n1c(=O)ccc2cc(S(=O)(=O)Nc3ccon3)ccc21 [Example 874, 1-(4′-chloro-3′-fluoro-4-methoxy-3-biphenylyl)-N-3-isoxazolyl-2-oxo-1,2-dihydro-6-quinolinesulfonamide] | 33 nM |
| COc1ccc(-c2cc(F)cc(Cl)c2)cc1-n1c(=O)ccc2cc(S(=O)(=O)Nc3ccncn3)ccc21 (atropisomer, axis not shown; (M)) [Example 612, (M)-1-(3′-chloro-5′-fluoro-4-methoxy-3-biphenylyl)-2-oxo-N-4-pyrimidinyl-1,2-dihydro-6-quinolinesulfonamide] | 355 nM |

same assay, conditions: in-vitro Nav 1.7 PX data (PatchXpress)

| SMILES | IC50 |
| --- | --- |
| COc1cc(-c2cc(Cl)ccc2F)ccc1-n1c(=O)ccc2cc(S(=O)(=O)Nc3ccon3)ccc21 [Example 1034, 1-(5′-chloro-2′-fluoro-3-methoxy-4-biphenylyl)-N-3-isoxazolyl-2-oxo-1,2-dihydro-6-quinolinesulfonamide] | 10 nM |
| O=c1ccc2cc(S(=O)(=O)Nc3ncns3)ccc2n1-c1ccc(-c2cc(F)cc(F)c2)cc1C1CC1 [Example 1048, 1-(3-cyclopropyl-3′,5′-difluoro-4-biphenylyl)-2-oxo-N-1,2,4-thiadiazol-5-yl-1,2-dihydro-6-quinolinesulfonamide] | 15 nM |

same assay, conditions: in-vitro PatchXpress (PX)

| SMILES | IC50 |
| --- | --- |
| COc1cc(-c2cc(F)cc(F)c2F)c(F)cc1-n1c(=O)ccc2cc(S(=O)(=O)Nc3ccon3)ccc21 (atropisomer, axis not shown; (M)) [Example 515, (M)-N-3-isoxazolyl-2-oxo-1-(2,2′,3′,5′-tetrafluoro-5-methoxy-4-biphenylyl)-1,2-dihydro-6-quinolinesulfonamide] | 5160 nM |
| COc1cc(-c2cccnc2)c(F)cc1-n1c(=O)ccc2cc(S(=O)(=O)Nc3ccon3)ccc21 [Example 404, 1-(5-fluoro-2-methoxy-4-(3-pyridinyl)phenyl)-N-3-isoxazolyl-2-oxo-1,2-dihydro-6-quinolinesulfonamide] | 4300 nM |
